{
  "source": "patent US20240116897A1",
  "about": "“BENZOTHIAZOLE AND BENZIMIDAZOLE DERIVATIVES, PHARMACEUTICALLY ACCEPTABLE SALT THEREOF, PREPARATION METHOD THEREFOR, AND PHARMACEUTICAL COMPOSITION COMPRISING SAME AS ACTIVE INGREDIENT” (KOREA RESEARCH INSTITUTE OF CHEMICAL TECHNOLOGY, priority 2021, published 2024)",
  "molecular_target": "T1, SIRT7 protein (Homo sapiens, UniProt Q9NRC8)",
  "T1 construct": "purchased SignalChem S41-30H",
  "T1 sequence (Q9NRC8 1-400)": "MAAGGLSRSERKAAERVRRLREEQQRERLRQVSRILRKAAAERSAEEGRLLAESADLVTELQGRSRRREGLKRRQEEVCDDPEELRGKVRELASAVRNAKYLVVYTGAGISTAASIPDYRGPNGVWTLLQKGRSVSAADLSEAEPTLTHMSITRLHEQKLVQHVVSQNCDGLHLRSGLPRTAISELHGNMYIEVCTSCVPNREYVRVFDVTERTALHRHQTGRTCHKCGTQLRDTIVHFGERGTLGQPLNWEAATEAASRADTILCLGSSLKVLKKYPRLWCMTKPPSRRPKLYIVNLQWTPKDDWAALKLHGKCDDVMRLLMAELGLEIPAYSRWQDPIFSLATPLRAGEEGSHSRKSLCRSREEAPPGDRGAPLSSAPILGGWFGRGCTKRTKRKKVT",
  "experiment": "SIRT Glo assay, inhibitory activity against Sirt7",
  "format": "biochemical",
  "conditions": "10 μM compound",
  "protocol": "Promega's Cat. No. 6450 SIRT Glo assay kit was used, and as the target SIRT7 protein, No. S41-30H protein of SignalChem's Cat. was used. Prepare the compound by diluting it in SIRT Glo buffer in advance to a concentration twice as thick as the final concentration. For the positive control group of white 384 well plate (Greiner Bioone, white, small volume, Cat. No. 874075), and for compound group, dilute sirt7 protein in SIRT Glo buffer and dispense by 5 μL to contain 20 ng per well. In the background control group, 10 μL of SIRT Glo buffer is dispensed.\nAfter adding 5 μL of SIRT Glo buffer to the positive control group, and 5 μL of the diluted compound to the compound group, react for 30 minutes. After making the substrate provided in the SIRT Glo assay, adding 10 μL each, and reacting for 1 hour, the luciferase activity is measured with a microplate reader (Molecular Device, spectramax i3).\nSubtract the luciferase level of the background control group in all wells. The % inhibition of the compound was used to obtain the compound's rate of inhibitory activity against sirt7 in the following:\n% inhibition=100−(compound group/positive control group)×100.",
  "data": [
    {"smiles": "Cc1ccc(Oc2ccc(C(=O)Nc3nc4ccc(Br)cc4s3)cc2)nn1", "note": "[Compound 1-18, N-(6-bromobenzo[d]thiazol-2-yl)-4-((6-methylpyridazin-3-yl)oxy)benzamide]", "values": [
      {"measurement": "inhibition at 10 µM", "value": 5, "unit": "%"}
    ]},
    {"smiles": "CCc1cnc(Oc2ccc(C(=O)Nc3nc4ccccc4s3)cc2)nc1", "note": "[Compound 1-19, N-(benzo[d]thiazol-2-yl)-4-((5-ethylpyrimidin-2-yl)oxy)benzamide]", "values": [
      {"measurement": "inhibition at 10 µM", "value": 13, "unit": "%"}
    ]},
    {"smiles": "CCc1cnc(Oc2cccc(C(=O)Nc3nc4ccccc4s3)c2)nc1", "note": "[Compound 1-20, N-(benzo[d]thiazol-2-yl)-3-((5-ethylpyrimidin-2-yl)oxy)benzamide]", "values": [
      {"measurement": "inhibition at 10 µM", "value": 63, "unit": "%"}
    ]},
    {"smiles": "O=C(Nc1nc2ccccc2s1)c1ccc(Oc2ncc(F)cn2)cc1", "note": "[Compound 1-21, N-(benzo[d]thiazol-2-yl)-4-((5-fluoropyrimidin-2-yl)oxy)benzamide]", "values": [
      {"measurement": "inhibition at 10 µM", "value": 41, "unit": "%"}
    ]},
    {"smiles": "CC(C)(C)OC(=O)N1CCN(c2nc3ccccc3s2)CC1", "note": "[Compound 1-22, tert-butyl 4-(benzo[d]thiazol-2-yl)piperazine-1-carboxylate]", "values": [
      {"measurement": "inhibition at 10 µM", "value": 49, "unit": "%"}
    ]},
    {"smiles": "c1ccc2sc(N3CCC4(CC3)OCCO4)nc2c1", "note": "[Compound 1-23, 8-(benzo[d]thiazol-2-yl)-1,4-dioxa-8-azaspiro[4.5]decane]", "values": [
      {"measurement": "inhibition at 10 µM", "value": 78, "unit": "%"}
    ]},
    {"smiles": "CC(C)(C)OC(=O)N1CCC2(CC1)CN(c1nc3ccccc3s1)C2", "note": "[Compound 1-24, tert-butyl 2-(benzo[d]thiazol-2-yl)-2,7-diazaspiro[3.5]nonane-7-carboxylate]", "values": [
      {"measurement": "inhibition at 10 µM", "value": 10, "unit": "%"}
    ]},
    {"smiles": "CC(C)(C)OC(=O)N1C[C@@H]2C[C@H]1CN2Cc1ccc(C(=O)Nc2nc3ccccc3s2)cc1", "note": "[Compound 1-25, Tert-Butyl (1S,4S)-5-(4-(benzo[d]thiazol-2-ylcarbamoyl)benzyl)-2,5-diazabicyclo[2.2.1]heptane-2-carboxylate]", "values": [
      {"measurement": "inhibition at 10 µM", "value": 72, "unit": "%"}
    ]},
    {"smiles": "CC(C)(C)OC(=O)N1CCN(Cc2ccc(C(=O)Nc3nc4ccccc4s3)cc2)CC1", "note": "[Compound 1-26, Tert-Butyl 4-(4-(benzo[d]thiazol-2-ylcarbamoyl)benzyl)piperazine-1-carboxylate]", "values": [
      {"measurement": "inhibition at 10 µM", "value": 40, "unit": "%"}
    ]},
    {"smiles": "CC(C)(C)OC(=O)N1CC2(CCN(Cc3ccc(C(=O)Nc4nc5ccccc5s4)cc3)CC2)C1", "note": "[Compound 1-27, tert-butyl 7-(4-(benzo[d]thiazol-2-ylcarbamoyl)benzyl)-2,7-diazaspiro[3.5]nonane-2-carboxylate]", "values": [
      {"measurement": "inhibition at 10 µM", "value": 27, "unit": "%"}
    ]},
    {"smiles": "CC(C)(C)OC(=O)N1CCC2(CCN(Cc3ccc(C(=O)Nc4nc5ccccc5s4)cc3)CC2)CC1", "note": "[Compound 1-28, tert-butyl 9-(4-(benzo[d]thiazol-2-ylcarbamoyl)benzyl)-3,9-diazaspiro[5.5]undecane-3-carboxylate]", "values": [
      {"measurement": "inhibition at 10 µM", "value": 62, "unit": "%"}
    ]},
    {"smiles": "O=C(Nc1nc2ccccc2s1)c1ccc(CN2CCC3(CC2)OCCO3)cc1", "note": "[Compound 1-29, 4-((1,4-dioxa-8-azaspiro[4.5]decan-8-yl)methyl)-N-(benzo[d]thiazol-2-yl)benzamide]", "values": [
      {"measurement": "inhibition at 10 µM", "value": 83, "unit": "%"}
    ]},
    {"smiles": "c1ccc(CN2CCC3(CC2)CN(c2nc4ccccc4s2)C3)cc1", "note": "[Compound 1-30, 2-(7-benzyl-2,7-diazaspiro[3.5]nonan-2-yl)benzo[d]thiazole]", "values": [
      {"measurement": "inhibition at 10 µM", "value": 19, "unit": "%"}
    ]},
    {"smiles": "O=C(Nc1nc2ccccc2s1)c1ccc(CN2CCNCC2)cc1", "note": "[Compound 1-31, N-(benzo[d]thiazol-2-yl)-4-(piperazin-1-ylmethyl)benzamide]", "values": [
      {"measurement": "inhibition at 10 µM", "value": 15, "unit": "%"}
    ]},
    {"smiles": "CCS(=O)(=O)N1CCN(Cc2ccc(C(=O)Nc3nc4ccccc4s3)cc2)CC1", "note": "[Compound 1-32, N-(benzo[d]thiazol-2-yl)-4-((4-(ethylsulfonyl)piperazin-1-yl)methyl)benzamide]", "values": [
      {"measurement": "inhibition at 10 µM", "value": 34, "unit": "%"}
    ]},
    {"smiles": "CN(C)S(=O)(=O)N1CCN(Cc2ccc(C(=O)Nc3nc4ccccc4s3)cc2)CC1", "note": "[Compound 1-33, N-(benzo[d]thiazol-2-yl)-4-((4-(N,N-dimethylsulfamoyl)piperazin-1-yl)methyl)benzamide]", "values": [
      {"measurement": "inhibition at 10 µM", "value": 33, "unit": "%"}
    ]},
    {"smiles": "O=C(Nc1nc2ccccc2s1)c1ccc(CN2CCN(S(=O)(=O)C3CC3)CC2)cc1", "note": "[Compound 1-34, N-(benzo[d]thiazol-2-yl)-4-((4-(cyclopropylsulfonyl)piperazin-1-yl)methyl)benzamide]", "values": [
      {"measurement": "inhibition at 10 µM", "value": 29, "unit": "%"}
    ]},
    {"smiles": "O=C(Nc1nc2ccccc2s1)c1ccc(CN2CCN(S(=O)(=O)c3ccccc3)CC2)cc1", "note": "[Compound 1-35, N-(benzo[d]thiazol-2-yl)-4-((4-(phenylulfonyl)piperazin-1-yl)methyl)benzamide]", "values": [
      {"measurement": "inhibition at 10 µM", "value": 20, "unit": "%"}
    ]},
    {"smiles": "O=C(Nc1nc2ccccc2s1)c1ccc(CN2CCN(S(=O)(=O)c3ccc(C(F)(F)F)cc3)CC2)cc1", "note": "[Compound 1-36, N-(benzo[d]thiazol-2-yl)-4-((4-((4-(trifluoromethyl)phenyl)sulfonyl)piperazin-1-yl)methyl)benzamide]", "values": [
      {"measurement": "inhibition at 10 µM", "value": 15, "unit": "%"}
    ]},
    {"smiles": "O=C(Nc1nc2ccccc2s1)c1ccc(CN2CCN(C(=O)Nc3ccccc3)CC2)cc1", "note": "[Compound 1-38, 4-(4-(benzo[d]thiazol-2-ylcarbamoyl)benzyl)-N-phenylpiperazine-1-carboxamide]", "values": [
      {"measurement": "inhibition at 10 µM", "value": 98, "unit": "%"}
    ]},
    {"smiles": "O=C(Nc1nc2ccccc2s1)c1ccc(CN2CCN(C(=O)Nc3ccc(C(F)(F)F)cc3)CC2)cc1", "note": "[Compound 1-39, 4-(4-(benzo[d]thiazol-2-ylcarbamoyl)benzyl)-N-(4-(trifluoromethyl)phenyl)piperazine-1-carboxamide]", "values": [
      {"measurement": "inhibition at 10 µM", "value": 87, "unit": "%"}
    ]},
    {"smiles": "CC(C)NC(=O)N1CCN(Cc2ccc(C(=O)Nc3nc4ccccc4s3)cc2)CC1", "note": "[Compound 1-40, 4-(4-(benzo[d]thiazol-2-ylcarbamoyl)benzyl)-N-isopropylpiperazine-1-carboxamide]", "values": [
      {"measurement": "inhibition at 10 µM", "value": 87, "unit": "%"}
    ]},
    {"smiles": "O=C(Nc1nc2ccccc2s1)c1ccc(CN2CCN(C(=O)NC34CC5CC(CC(C5)C3)C4)CC2)cc1", "note": "[Compound 1-41]", "values": [
      {"measurement": "inhibition at 10 µM", "value": 66, "unit": "%"}
    ]},
    {"smiles": "COc1ccc(NC(=O)N2CCN(Cc3ccc(C(=O)Nc4nc5ccccc5s4)cc3)CC2)cc1", "note": "[Compound 1-42, 4-(4-(benzo[d]thiazol-2-ylcarbamoyl)benzyl)-N-(4-methoxyphenyl)piperazine-1-carboxamide]", "values": [
      {"measurement": "inhibition at 10 µM", "value": 89, "unit": "%"}
    ]},
    {"smiles": "O=C(Nc1nc2ccccc2s1)c1ccc(CN2CCN(C(=O)Nc3ccccc3C(F)(F)F)CC2)cc1", "note": "[Compound 1-43, 4-(4-(benzo[d]thiazol-2-ylcarbamoyl)benzyl)-N-(2-(trifluoromethyl)phenyl)piperazine-1-carboxamide]", "values": [
      {"measurement": "inhibition at 10 µM", "value": 79, "unit": "%"}
    ]},
    {"smiles": "O=C(Nc1nc2ccccc2s1)c1ccc(CN2CCN(C(=O)Nc3ccc(F)cc3)CC2)cc1", "note": "[Compound 1-44, 4-(4-(benzo[d]thiazol-2-ylcarbamoyl)benzyl)-N-(4-fluorophenyl)piperazine-1-carboxamide]", "values": [
      {"measurement": "inhibition at 10 µM", "value": 95, "unit": "%"}
    ]},
    {"smiles": "O=C(Nc1nc2ccccc2s1)c1ccc(CN2CCN(C(=O)Nc3ccccc3F)CC2)cc1", "note": "[Compound 1-45, 4-(4-(benzo[d]thiazol-2-ylcarbamoyl)benzyl)-N-(2-fluorophenyl)piperazine-1-carboxamide]", "values": [
      {"measurement": "inhibition at 10 µM", "value": 96, "unit": "%"}
    ]},
    {"smiles": "O=C(Nc1nc2ccccc2s1)c1ccc(CN2CCN(C(=O)Nc3ccc4c(c3)CCC4)CC2)cc1", "note": "[Compound 1-46, 4-(4-(benzo[d]thiazol-2-ylcarbamoyl)benzyl)-N-(2,3-dihydro-1H-inden-5-yl)piperazine-1-carboxamide]", "values": [
      {"measurement": "inhibition at 10 µM", "value": 84, "unit": "%"}
    ]},
    {"smiles": "Cc1cc(C)cc(NC(=O)N2CCN(Cc3ccc(C(=O)Nc4nc5ccccc5s4)cc3)CC2)c1", "note": "[Compound 1-47, 4-(4-(benzo[d]thiazol-2-ylcarbamoyl)benzyl)-N-(3,5-dimethyphenyl)piperazine-1-carboxamide]", "values": [
      {"measurement": "inhibition at 10 µM", "value": 88, "unit": "%"}
    ]}
  ]
}
